Species on record: Rattus norvegicus
Experiment: DrugMatrix - Regimen: Daily Repeat
Type: toxicity, organism-based, Sprague-Dawley
Set-up: regimen Daily Repeat, gender Male, age 6-8 weeks
Conditions: in vivo, po, 25 mg/kg, route oral GAVAGE, dose level Low, vehicle .5 % CMC; for ABSOLUTE BASOPHIL / ABSOLUTE EOSINOPHIL / ABSOLUTE LYMPHOCYTE / ABSOLUTE MONOCYTE / ABSOLUTE SEGMENTED NEUTROPHIL / BASOPHIL / EOSINOPHIL / ERYTHROCYTE COUNT / HEMATOCRIT / HEMOGLOBIN / LEUKOCYTE COUNT / LYMPHOCYTE / MEAN CORPUSCULAR HEMOGLOBIN / MEAN CORPUSCULAR HEMOGLOBIN CONCENTRATION / MEAN CORPUSCULAR VOLUME / MONOCYTE / NEUTROPHIL / NUCLEATED RED BLOOD CELLS / PLATELET COUNT: tissue Blood; for ALANINE AMINOTRANSFERASE / ALBUMIN / ALKALINE PHOSPHATASE / ASPARTATE AMINOTRANSFERASE / BLOOD UREA NITROGEN / CARBON DIOXIDE / CHLORIDE / CHOLESTEROL / CREATINE PHOSPHOKINASE / CREATININE / GLUCOSE / LACTATE DEHYDROGENASE / LIPASE / PHOSPHORUS / POTASSIUM / SODIUM / TOTAL BILIRUBIN / TOTAL PROTEIN / URIC ACID: tissue Plasma

SMILES: CCCCC1C(=O)N(c2ccccc2)N(c2ccccc2)C1=O [PHENYLBUTAZONE]
- ABSOLUTE BASOPHIL (72 h, time 3 day): 0 CELLS/uL
- ABSOLUTE EOSINOPHIL (72 h, time 3 day): 0 CELLS/uL
- ABSOLUTE LYMPHOCYTE (72 h, time 3 day): 8397.33 CELLS/uL
- ABSOLUTE MONOCYTE (72 h, time 3 day): 56.33 CELLS/uL
- ABSOLUTE SEGMENTED NEUTROPHIL (72 h, time 3 day): 846.33 CELLS/uL
- BASOPHIL (72 h, time 3 day): 0%
- EOSINOPHIL (72 h, time 3 day): 0%
- ERYTHROCYTE COUNT (72 h, time 3 day): 5.18 x10E6/uL
- HEMATOCRIT (72 h, time 3 day): 33.27%
- HEMOGLOBIN (72 h, time 3 day): 13.33 G/DL
- LEUKOCYTE COUNT (72 h, time 3 day): 9.3 x10E3/uL
- LYMPHOCYTE (72 h, time 3 day): 90.67%
- MEAN CORPUSCULAR HEMOGLOBIN (72 h, time 3 day): 25.83 pg
- MEAN CORPUSCULAR HEMOGLOBIN CONCENTRATION (72 h, time 3 day): 40.17 G/DL
- MEAN CORPUSCULAR VOLUME (72 h, time 3 day): 64.37 fL
- MONOCYTE (72 h, time 3 day): 0.67%
- NEUTROPHIL (72 h, time 3 day): 8.67%
- NUCLEATED RED BLOOD CELLS (72 h, time 3 day): 0 /100WBC
- PLATELET COUNT (72 h, time 3 day): 982.67 x10E3/uL
- ALANINE AMINOTRANSFERASE (72 h, time 3 day): 57 u/L
- ALBUMIN (72 h, time 3 day): 4.4 G/DL
- ALKALINE PHOSPHATASE (72 h, time 3 day): 377 u/L
- ASPARTATE AMINOTRANSFERASE (72 h, time 3 day): 101.33 u/L
- BLOOD UREA NITROGEN (72 h, time 3 day): 16.33 mg/dL
- CARBON DIOXIDE (72 h, time 3 day): 29.33 mmol/L
- CHLORIDE (72 h, time 3 day): 103 MEQ/L
- CHOLESTEROL (72 h, time 3 day): 73 mg/dL
- CREATINE PHOSPHOKINASE (72 h, time 3 day): 583.33 u/L
- CREATININE (72 h, time 3 day): 0.17 mg/dL
- GLUCOSE (72 h, time 3 day): 154.67 mg/dL
- LACTATE DEHYDROGENASE (72 h, time 3 day): 337.67 u/L
- LIPASE (72 h, time 3 day): 8.67 u/L
- PHOSPHORUS (72 h, time 3 day): 12.6 mg/dL
- POTASSIUM (72 h, time 3 day): 6.38 MEQ/L
- SODIUM (72 h, time 3 day): 143.37 MEQ/L
- TOTAL BILIRUBIN (72 h, time 3 day): 0.13 mg/dL
- TOTAL PROTEIN (72 h, time 3 day): 5.87 G/DL
- URIC ACID (72 h, time 3 day): 1.67 mg/dL
- ABSOLUTE BASOPHIL (120 h, time 5 day): 0 CELLS/uL
- ABSOLUTE EOSINOPHIL (120 h, time 5 day): 72 CELLS/uL
- ABSOLUTE LYMPHOCYTE (120 h, time 5 day): 8896 CELLS/uL
- ABSOLUTE MONOCYTE (120 h, time 5 day): 33 CELLS/uL
- ABSOLUTE SEGMENTED NEUTROPHIL (120 h, time 5 day): 999 CELLS/uL
- BASOPHIL (120 h, time 5 day): 0%
- EOSINOPHIL (120 h, time 5 day): 0.67%
- ERYTHROCYTE COUNT (120 h, time 5 day): 5 x10E6/uL
- HEMATOCRIT (120 h, time 5 day): 31.63%
- HEMOGLOBIN (120 h, time 5 day): 12.6 G/DL
- LEUKOCYTE COUNT (120 h, time 5 day): 10 x10E3/uL
- LYMPHOCYTE (120 h, time 5 day): 89%
- MEAN CORPUSCULAR HEMOGLOBIN (120 h, time 5 day): 25.27 pg
- MEAN CORPUSCULAR HEMOGLOBIN CONCENTRATION (120 h, time 5 day): 39.87 G/DL
- MEAN CORPUSCULAR VOLUME (120 h, time 5 day): 63.4 fL
- MONOCYTE (120 h, time 5 day): 0.33%
- NEUTROPHIL (120 h, time 5 day): 10%
- NUCLEATED RED BLOOD CELLS (120 h, time 5 day): 0 /100WBC
- PLATELET COUNT (120 h, time 5 day): 635.33 x10E3/uL
- ALANINE AMINOTRANSFERASE (120 h, time 5 day): 52 u/L
- ALBUMIN (120 h, time 5 day): 4.53 G/DL
- ALKALINE PHOSPHATASE (120 h, time 5 day): 362 u/L
- ASPARTATE AMINOTRANSFERASE (120 h, time 5 day): 82.33 u/L
- BLOOD UREA NITROGEN (120 h, time 5 day): 20 mg/dL
- CARBON DIOXIDE (120 h, time 5 day): 25 mmol/L
- CHLORIDE (120 h, time 5 day): 105.67 MEQ/L
- CHOLESTEROL (120 h, time 5 day): 71.33 mg/dL
- CREATINE PHOSPHOKINASE (120 h, time 5 day): 253 u/L
- CREATININE (120 h, time 5 day): 0.26 mg/dL
- GLUCOSE (120 h, time 5 day): 148 mg/dL
- LACTATE DEHYDROGENASE (120 h, time 5 day): 409.67 u/L
- LIPASE (120 h, time 5 day): 11 u/L
- PHOSPHORUS (120 h, time 5 day): 11.9 mg/dL
- POTASSIUM (120 h, time 5 day): 6.52 MEQ/L
- SODIUM (120 h, time 5 day): 146.6 MEQ/L
- TOTAL BILIRUBIN (120 h, time 5 day): 0.2 mg/dL
- TOTAL PROTEIN (120 h, time 5 day): 6.2 G/DL
- URIC ACID (120 h, time 5 day): 1.47 mg/dL

— ChEMBL document CHEMBL3885881, “DrugMatrix”
